Among the data in article PMC12136037, “Type II kinase inhibitors that target Parkinson’s disease–associated LRRK2” (Science Advances, 2025) are dTm values, retold here.

Assay in all cases: DSF 100 kinase selectivity screen;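 also: compound tested at 20 µM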
Type in all cases: binding

Test [1] has as its target T1, ~100 representative kinases (Homo sapiens, UniProt P28482).
T1 construct: Recombinant protein kinase domains with a concentration of 2 μM
As to conditions: protein MAPK1; average of three replicates. The method in brief:
(§1)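 Each kinase domain, at 2 μM, is mixed with 20 μM test compound and SYPRO Orange in Hepes (20 mM, pH 7.5) with 500 mM NaCl. Temperature is then raised at 3°C/min and fluorescence-monitored unfolding yields the melting temperature change, ΔTm in degrees Celsius.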

Test [2] deals with T2, ~100 representative kinases (Homo sapiens, UniProt Q99683).
T2 construct: Recombinant protein kinase domains with a concentration of 2 μM
T2 sequence (Q99683 1-1374): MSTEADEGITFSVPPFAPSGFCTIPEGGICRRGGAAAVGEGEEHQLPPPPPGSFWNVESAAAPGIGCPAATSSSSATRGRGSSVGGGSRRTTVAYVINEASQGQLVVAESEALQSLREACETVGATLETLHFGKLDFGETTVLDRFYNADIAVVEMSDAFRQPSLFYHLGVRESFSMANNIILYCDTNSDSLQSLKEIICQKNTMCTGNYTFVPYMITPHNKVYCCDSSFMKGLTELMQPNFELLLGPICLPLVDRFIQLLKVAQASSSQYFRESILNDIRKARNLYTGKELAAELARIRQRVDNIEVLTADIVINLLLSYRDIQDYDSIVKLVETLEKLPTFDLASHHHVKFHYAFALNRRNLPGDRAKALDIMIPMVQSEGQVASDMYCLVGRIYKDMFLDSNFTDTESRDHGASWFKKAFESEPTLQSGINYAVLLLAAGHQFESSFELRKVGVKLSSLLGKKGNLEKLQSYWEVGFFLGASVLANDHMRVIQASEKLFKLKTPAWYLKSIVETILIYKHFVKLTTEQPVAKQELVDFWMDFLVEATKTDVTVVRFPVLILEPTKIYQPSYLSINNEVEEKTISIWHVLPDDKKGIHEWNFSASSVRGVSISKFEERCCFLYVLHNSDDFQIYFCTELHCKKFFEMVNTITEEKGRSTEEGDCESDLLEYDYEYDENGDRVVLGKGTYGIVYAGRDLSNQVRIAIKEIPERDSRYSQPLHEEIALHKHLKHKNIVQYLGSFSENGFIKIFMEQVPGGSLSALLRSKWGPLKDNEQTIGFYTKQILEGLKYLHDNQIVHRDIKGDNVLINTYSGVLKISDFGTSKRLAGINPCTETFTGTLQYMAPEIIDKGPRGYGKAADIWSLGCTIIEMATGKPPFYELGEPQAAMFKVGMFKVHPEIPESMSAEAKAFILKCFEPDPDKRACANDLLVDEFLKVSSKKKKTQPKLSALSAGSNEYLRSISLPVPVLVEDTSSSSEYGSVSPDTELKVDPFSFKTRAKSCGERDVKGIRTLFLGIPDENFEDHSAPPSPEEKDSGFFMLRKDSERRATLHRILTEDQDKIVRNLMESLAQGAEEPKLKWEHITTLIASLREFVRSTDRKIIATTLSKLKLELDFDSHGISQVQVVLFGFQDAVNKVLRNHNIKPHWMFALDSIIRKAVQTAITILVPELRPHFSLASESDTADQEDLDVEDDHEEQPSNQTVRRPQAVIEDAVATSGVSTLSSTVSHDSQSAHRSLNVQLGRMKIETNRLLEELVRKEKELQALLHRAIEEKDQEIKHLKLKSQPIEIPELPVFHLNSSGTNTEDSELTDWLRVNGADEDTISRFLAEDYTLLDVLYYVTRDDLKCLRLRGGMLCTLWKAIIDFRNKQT
As to conditions: protein MAP3K5; average of three replicates. The method in brief:
as §1

Test [3] concerns the target T3, ~100 representative kinases (Homo sapiens, UniProt Q96SB4).
T3 construct: Recombinant protein kinase domains with a concentration of 2 μM
As to conditions: Protein SRPK1; DSF; average of three replicates. In short, it runs like this: as §1

For test [4], the target named is T4, ~100 representative kinases (Homo sapiens, UniProt P54762).
T4 construct: Recombinant protein kinase domains with a concentration of 2 μM
T4 sequence (P54762 18-984): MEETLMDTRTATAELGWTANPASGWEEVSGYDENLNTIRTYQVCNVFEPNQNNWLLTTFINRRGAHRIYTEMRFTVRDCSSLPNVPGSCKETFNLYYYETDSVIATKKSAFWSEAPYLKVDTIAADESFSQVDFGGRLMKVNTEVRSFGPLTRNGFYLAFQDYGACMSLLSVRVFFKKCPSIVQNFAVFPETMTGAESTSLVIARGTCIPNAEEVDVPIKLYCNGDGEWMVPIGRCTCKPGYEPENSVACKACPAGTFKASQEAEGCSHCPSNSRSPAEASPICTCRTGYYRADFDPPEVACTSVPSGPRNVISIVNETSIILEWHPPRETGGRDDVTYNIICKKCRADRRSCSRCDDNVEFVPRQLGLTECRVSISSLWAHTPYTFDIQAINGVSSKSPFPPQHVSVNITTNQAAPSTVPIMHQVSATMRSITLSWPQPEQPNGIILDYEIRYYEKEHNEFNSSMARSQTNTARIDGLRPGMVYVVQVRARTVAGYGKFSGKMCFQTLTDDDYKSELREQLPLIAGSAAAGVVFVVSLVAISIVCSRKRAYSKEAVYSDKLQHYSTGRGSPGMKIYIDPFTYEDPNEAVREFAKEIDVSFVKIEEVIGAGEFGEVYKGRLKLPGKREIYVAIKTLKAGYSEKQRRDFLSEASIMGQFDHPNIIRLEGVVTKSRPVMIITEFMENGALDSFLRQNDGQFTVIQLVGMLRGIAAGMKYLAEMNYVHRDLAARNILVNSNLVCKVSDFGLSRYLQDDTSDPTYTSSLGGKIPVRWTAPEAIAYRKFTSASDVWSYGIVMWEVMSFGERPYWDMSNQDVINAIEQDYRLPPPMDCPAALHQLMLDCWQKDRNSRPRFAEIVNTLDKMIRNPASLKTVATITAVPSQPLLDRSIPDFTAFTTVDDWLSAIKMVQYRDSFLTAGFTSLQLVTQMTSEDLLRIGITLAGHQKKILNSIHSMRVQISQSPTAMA
As to conditions: Protein EPHB1; average of three replicates. In short, it runs like this:
as §1

The target of test [5] is T5, ~100 representative kinases (Homo sapiens, UniProt Q5VT25).
T5 construct: Recombinant protein kinase domains with a concentration of 2 μM
As to conditions: Protein CDC42BPA; average of three replicates. The method in brief:
as §1

The structures appear in SMILES notation.

T1 sequence (P28482 whole entry, the tested form may be a part): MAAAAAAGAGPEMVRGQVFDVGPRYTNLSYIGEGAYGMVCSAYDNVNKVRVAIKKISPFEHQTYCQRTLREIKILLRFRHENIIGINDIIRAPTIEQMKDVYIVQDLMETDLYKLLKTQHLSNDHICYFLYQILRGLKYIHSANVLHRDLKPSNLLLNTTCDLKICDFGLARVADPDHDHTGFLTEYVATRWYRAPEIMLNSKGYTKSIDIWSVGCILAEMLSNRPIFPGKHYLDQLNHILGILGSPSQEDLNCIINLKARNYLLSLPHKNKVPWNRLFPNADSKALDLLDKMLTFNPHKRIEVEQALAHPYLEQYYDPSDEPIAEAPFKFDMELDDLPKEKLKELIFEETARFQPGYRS
T5 sequence (Q5VT25 whole entry, the tested form may be a part): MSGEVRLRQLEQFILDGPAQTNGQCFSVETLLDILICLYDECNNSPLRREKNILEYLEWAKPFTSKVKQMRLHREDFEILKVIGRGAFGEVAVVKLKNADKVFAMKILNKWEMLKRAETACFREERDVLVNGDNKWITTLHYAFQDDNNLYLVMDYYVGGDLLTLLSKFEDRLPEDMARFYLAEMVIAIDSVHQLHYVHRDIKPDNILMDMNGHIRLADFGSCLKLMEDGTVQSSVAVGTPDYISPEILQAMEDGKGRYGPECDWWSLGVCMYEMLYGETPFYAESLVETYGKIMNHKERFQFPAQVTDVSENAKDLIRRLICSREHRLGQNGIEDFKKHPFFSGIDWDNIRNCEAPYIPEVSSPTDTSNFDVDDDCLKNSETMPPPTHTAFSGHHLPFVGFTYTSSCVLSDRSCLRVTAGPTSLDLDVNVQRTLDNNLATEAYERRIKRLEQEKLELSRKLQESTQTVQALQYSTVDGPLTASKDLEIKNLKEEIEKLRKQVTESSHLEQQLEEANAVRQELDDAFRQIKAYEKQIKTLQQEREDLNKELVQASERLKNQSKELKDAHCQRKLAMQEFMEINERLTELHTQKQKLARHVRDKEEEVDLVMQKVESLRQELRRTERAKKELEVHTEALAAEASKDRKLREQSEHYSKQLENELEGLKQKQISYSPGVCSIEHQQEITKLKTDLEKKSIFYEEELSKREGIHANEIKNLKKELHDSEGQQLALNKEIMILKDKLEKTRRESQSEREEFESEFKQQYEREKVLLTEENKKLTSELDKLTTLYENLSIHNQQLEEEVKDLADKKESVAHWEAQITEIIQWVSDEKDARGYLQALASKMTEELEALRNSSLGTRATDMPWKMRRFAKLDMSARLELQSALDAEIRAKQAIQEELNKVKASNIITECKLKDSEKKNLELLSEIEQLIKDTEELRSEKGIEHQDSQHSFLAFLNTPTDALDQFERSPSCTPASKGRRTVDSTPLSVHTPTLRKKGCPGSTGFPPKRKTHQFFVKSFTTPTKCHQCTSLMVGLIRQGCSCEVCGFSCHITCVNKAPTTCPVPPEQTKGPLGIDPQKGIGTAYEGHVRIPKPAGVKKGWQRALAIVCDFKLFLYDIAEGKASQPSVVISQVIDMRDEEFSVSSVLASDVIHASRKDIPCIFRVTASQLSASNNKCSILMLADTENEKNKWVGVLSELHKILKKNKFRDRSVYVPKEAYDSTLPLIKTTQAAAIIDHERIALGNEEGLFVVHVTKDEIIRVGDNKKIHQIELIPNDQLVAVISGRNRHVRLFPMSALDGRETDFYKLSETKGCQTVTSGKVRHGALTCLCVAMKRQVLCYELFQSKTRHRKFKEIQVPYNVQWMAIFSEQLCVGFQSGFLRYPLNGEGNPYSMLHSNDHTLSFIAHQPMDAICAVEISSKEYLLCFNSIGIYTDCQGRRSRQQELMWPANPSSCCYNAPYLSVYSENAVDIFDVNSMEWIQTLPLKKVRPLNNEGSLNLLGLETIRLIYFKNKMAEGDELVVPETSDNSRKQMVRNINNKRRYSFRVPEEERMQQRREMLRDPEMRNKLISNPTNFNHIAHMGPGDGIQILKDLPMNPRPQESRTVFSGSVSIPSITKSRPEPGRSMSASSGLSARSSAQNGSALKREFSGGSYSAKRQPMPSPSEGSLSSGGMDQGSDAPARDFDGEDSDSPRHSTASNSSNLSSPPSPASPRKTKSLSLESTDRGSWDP
T3 sequence (Q96SB4 whole entry, the tested form may be a part): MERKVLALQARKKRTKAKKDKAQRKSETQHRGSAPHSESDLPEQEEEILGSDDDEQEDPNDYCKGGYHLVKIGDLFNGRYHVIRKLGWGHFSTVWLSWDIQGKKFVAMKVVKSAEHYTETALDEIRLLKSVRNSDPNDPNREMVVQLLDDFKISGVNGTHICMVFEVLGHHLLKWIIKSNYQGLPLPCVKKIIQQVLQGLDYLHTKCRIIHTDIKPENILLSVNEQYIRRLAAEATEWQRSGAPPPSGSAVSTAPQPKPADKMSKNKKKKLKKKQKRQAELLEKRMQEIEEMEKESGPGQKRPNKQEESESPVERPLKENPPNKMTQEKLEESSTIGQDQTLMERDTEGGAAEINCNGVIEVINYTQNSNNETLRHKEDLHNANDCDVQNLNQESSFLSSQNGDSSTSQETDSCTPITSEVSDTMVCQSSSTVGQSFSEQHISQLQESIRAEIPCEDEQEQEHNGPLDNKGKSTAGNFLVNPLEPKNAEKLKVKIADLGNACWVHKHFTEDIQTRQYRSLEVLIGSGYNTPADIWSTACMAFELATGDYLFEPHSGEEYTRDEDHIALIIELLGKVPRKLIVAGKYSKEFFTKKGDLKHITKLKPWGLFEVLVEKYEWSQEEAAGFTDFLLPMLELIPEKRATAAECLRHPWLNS

With `O=C(Nc1cccc(-c2c[nH]c3ncnc(N4CCOCC4)c23)c1)C1(C(=O)Nc2ccc(F)c(Cl)c2)CC1` [Compound 18], the dTm in test [1] is 0.11 K; in test [2] it was 3.67 K; in test [3], 12.10 K; in test [4], 3.41 K; in test [5], -0.25 K.

With `CCc1ccc(NC(=O)C2(C(=O)Nc3cccc(-c4c[nH]c5ncnc(N6CCOCC6)c45)c3)CC2)cc1` [Compound 15], the dTm in test [1] is on record as -0.47 K; in test [2], 1.27 K; in test [3] it was 5.47 K; in test [4] it was 3.72 K; in test [5], -0.98 K.

For `CCNc1nc(Nc2cc(F)c(C(=O)N3CCOCC3)cc2OC)ncc1C(F)(F)F` [GNE-7915], the dTm was 0.38 K in test [1]; 3.14 K in test [2]; 0.15 K in test [3]; 0.07 K in test [4]; -0.72 K in test [5].

As for `O=C(Nc1cccc(-c2c[nH]c3ncnc(N4CCOCC4)c23)c1)c1cccn(-c2ccc(F)cc2)c1=O` [Compound 4], the dTm in test [1] is given as -0.49 K; in test [2] it was 4.59 K; in test [3] it was 9.86 K; in test [4], 2.81 K; in test [5], -0.81 K.

Regarding `Cc1ccc(C(=O)Nc2ccc(CN3CCN(C)CC3)c(C(F)(F)F)c2)cc1C#Cc1cnc2[nH]ncc2c1` [GZD-824, reference compound], the dTm in test [1] was 0.87 K; in test [2] it was 5.05 K; in test [3], 13.60 K; in test [4], 14.98 K; in test [5], -1.37 K.

In the case of `O=C(Nc1ccccc1)C1(C(=O)Nc2cccc(-c3c[nH]c4ncnc(N5CCOCC5)c34)c2)CC1` [Compound 12], the dTm was 0.22 K in test [1]; 2.42 K in test [2]; 7.66 K in test [3]; 2.37 K in test [4]; -0.16 K in test [5].

As to `Cc1ccc(C(=O)Nc2ccc(CN3CCN(C)CC3)c(C(F)(F)F)c2)cc1C#Cc1c[nH]c2ncnc(N3CCOCC3)c12` [Compound 1], the dTm in test [1] is 0.68 K; in test [2], 6.86 K; in test [3] it was 15.50 K; in test [4] it was 4.85 K; in test [5], -1.51 K.

With `Cc1cc(F)ccc1NC(=O)C1(C(=O)Nc2cccc(-c3c[nH]c4ncnc(N5CCOCC5)c34)c2)CC1` [Compound 24], the dTm in test [1] is reported as -0.19 K; in test [2] it was 1.15 K; in test [3] it was 3.79 K; in test [4] it was 1.63 K; in test [5] it was -1.23 K.

For `O=C(Nc1cc(F)cc(Br)c1)C1(C(=O)Nc2cccc(-c3c[nH]c4ncnc(N5CCOCC5)c34)c2)CC1` [Compound 27], the dTm in test [1] was 0.0359 K; in test [2], 3.40 K; in test [3], -0.47 K; in test [4], -2.93 K; in test [5], 0.59 K.

On to `O=C(Nc1ccc(Cl)cc1)C1(C(=O)Nc2cccc(-c3c[nH]c4ncnc(N5CCOCC5)c34)c2)CC1` [Compound 13], for which the dTm is reported as 0.06 K in test [1]; 4.01 K in test [2]; 12.04 K in test [3]; 5.42 K in test [4]; -0.08 K in test [5].

`COc1cc(S(C)(=O)=O)ccc1Nc1nc(N(C)C)c2c(Cl)c[nH]c2n1` [Compound 37]: the dTm in test [1] is 0.14 K; in test [2], 1.09 K; in test [3] it was 0.39 K; in test [4] it was -0.51 K; in test [5] it was -0.18 K.

With `O=C(Nc1cccc(-c2c[nH]c3ncnc(N4CCOCC4)c23)c1)C1(C(=O)Nc2ccc(F)c(F)c2)CC1` [Compound 17], the dTm was -0.20 K in test [1]; 3.32 K in test [2]; 8.69 K in test [3]; 2.50 K in test [4]; -0.72 K in test [5].

Take `CNC(=O)c1cc(Oc2ccc(NC(=O)Nc3cc(C(C)(C)C)nn3-c3ccc4ncccc4c3)c(F)c2)ccn1` [Rebastinib, reference compound]: the dTm is 0.54 K in test [1]; 1.38 K in test [2]; 14.66 K in test [3]; 4.28 K in test [4]; 0.18 K in test [5].

For the compound `O=C(Nc1cccc(-c2c[nH]c3ncnc(N4CCOCC4)c23)c1)C1(C(=O)Nc2cc(Br)c(F)cc2F)CC1` [Compound 25], the dTm in test [1] was -0.0637 K; in test [2] it was 2.91 K; in test [3] it was 4.56 K; in test [4], -4.24 K; in test [5], -0.57 K.

For `CC(C)(C)c1cc(NC(=O)Nc2cccc(-c3c[nH]c4ncnc(N5CCOCC5)c34)c2)n(-c2ccc3ncccc3c2)n1` [Compound 28], the dTm is on record as 0.09 K in test [1]; 3.36 K in test [2]; 16.05 K in test [3]; 11.35 K in test [4]; -0.65 K in test [5].

`COc1cc(C(=O)N2CCOCC2)c(F)cc1Nc1nc(N(C)C)c2c(Cl)c[nH]c2n1` [Compound 36]: the dTm in test [1] is 1.60 K; in test [2], 6.66 K; in test [3] it was 3.22 K; in test [4], -0.27 K; in test [5] it was -0.93 K.

Consider `CN[C@@H]1C[C@H]2O[C@@](C)([C@@H]1OC)n1c3ccccc3c3c4c(c5c6ccccc6n2c5c31)C(=O)NC4` [Staurosporine], for which the dTm in test [3] is listed as 7.17 K; in test [5], 3.20 K.

In test [5], `Cc1ccc(C(=O)Nc2ccc(CN3CCN(C)CC3)c(C(F)(F)F)c2)cc1C#Cc1cnc2cccnn12` [Ponatinib, reference compound] returned a dTm of -1.37 K.
